# In ChEMBL document CHEMBL1157290, “Bioactive isomalabaricane triterpenoids from Rhabdastrella globostellata that stabilize the binding of DNA polymerase beta to DNA” (2006):
# Calls of active or inactive are those of the source. No cut-off for these calls is given here. *1 amine or outer side, *2 acyl side, *3 side chain or, on linkers, in order; H or OH if unused. Where a SMILES comes first, the peptide text is derived from it. Bridges are numbered along the chain shown (N, C = ends). Roman numbers before positions name the chains, in order. [ ]: non-standard residue; d: D form. Actinocin(1to9) = Cc1c2oc3c(C)ccc(C(=O)[*:2])c3nc-2c(C(=O)[*:1])c(N)c1=O; NMeV = CN[C@H](C(=O)O)C(C)C; Sar = CNCC(=O)O
# Assays:
# A2780 = test: Cytotoxicity against human A2780 cells; assay type: functional
# Rattus norvegicus = organism: Rattus norvegicus; test: Stabilization of rat DNA polymerase binding to DNA by gel mobility assay
SMILES,Activity (Rattus norvegicus),Activity (A2780) [µM]
"Cc1c2oc3c(C)ccc(C(=O)N[C@@H]4C(=O)N[C@H](C(C)C)C(=O)N5CCC[C@H]5C(=O)N(C)CC(=O)N(C)[C@@H](C(C)C)C(=O)O[C@@H]4C)c3nc-2c(C(=O)N[C@@H]2C(=O)N[C@H](C(C)C)C(=O)N3CCC[C@H]3C(=O)N(C)CC(=O)N(C)[C@@H](C(C)C)C(=O)O[C@@H]2C)c(N)c1=O [DACTINOMYCIN] (I: T[dV]P[Sar][NMeV] / II: T[dV]P[Sar][NMeV]; ester I:1-I:C, II:1-II:C; linker I:N-II:N via Actinocin(1to9))",,0.0017
CC(C)=C/C=C/C(C)=C/C=C/C(C)=C1\C(=O)C[C@H]2[C@@]3(C)CC[C@@H](O)[C@](C)(C(=O)O)[C@@H]3CC[C@]12C [STELLETTIN K],inactive,0.28
CC(C)=C/C=C/C(C)=C/C=C/C(C)=C1\C(=O)C[C@H]2[C@@]3(C)CC[C@@H](O)[C@](C)(CO)[C@@H]3CC[C@]12C [STELLETTIN J],8%,1.2

# Now from value to compound, other results behind:
Activity (Rattus norvegicus),SMILES,Activity (A2780) [µM]
23%,CC(=O)OC[C@]1(C)[C@@H]2CC[C@]3(C)/C(=C(C)/C=C/C=C(\C)[C@H](CC=C(C)C)OC(C)=O)C(=O)C[C@H]3[C@@]2(C)CC[C@H]1OC(C)=O,27
29%,CC(=O)O[C@@H]1CC[C@@]2(C)[C@@H](CC[C@]3(C)/C(=C(C)/C=C/C=C(\C)C(CC=C(C)C)O[C@@H]4OC[C@@H](O)[C@@H](O)[C@H]4O)C(=O)C[C@@H]23)C1(C)C (some centres undefined) [STELLIFERIN RIBOSIDE],7.3
